In patent US8030498B2, “Benzoylpyrazole compounds and herbicides containing them” (Ishihara Sangyo Kaisha, Ltd., priority 2005, dated 2011):

Columns and labels:
[1] = test system: barnyardgrass (Echinochloa crus-galli L.); assay: Test Example 1: foliar treatment, growth inhibition rate, barnyardgrass; assay type: in vivo; conditions: 31 g/ha active ingredient, visually observed 17th to 23rd day after application
Outline: (§1)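 Seeds were sown in upland field soil in pots. At the target leaf stage (corn 2.0–3.5; greenfoxtail 1.0–3.0; rice 1.0–2.5; wheat 1.7–3.4), the formulated compound, diluted at a water volume of 500 L/ha with 0.1 vol % spreader, was applied by small sprayer. Plants were rated by eye on days 17–23.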

[2] = test system: crabgrass (Digitaria sanguinalis L.); assay: Test Example 1: foliar treatment, growth inhibition rate, crabgrass; assay type: in vivo; conditions: 31 g/ha active ingredient, visually observed 17th to 23rd day after application
Outline: (§2)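 Visual scoring of growth inhibition, 0% (untreated) to 100% (complete kill), on days 17–23 following post-emergence spray of formulated compound in water (500 L/ha, 0.1 vol % spreader); plants treated at set leaf stages, e.g. corn 2.0–3.5, wheat 1.7–3.4.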

[3] = test system: greenfoxtail (Setaria viridis L.); assay: Test Example 1: foliar treatment, growth inhibition rate, greenfoxtail; assay type: in vivo; conditions: 31 g/ha active ingredient, visually observed 17th to 23rd day after application
Outline: as §2

[4] = test system: redroot pigweed (Amaranthus retroflexus L.); assay: Test Example 1: foliar treatment, growth inhibition rate, redroot pigweed; assay type: in vivo; conditions: 31 g/ha active ingredient, visually observed 17th to 23rd day after application
Outline: as §2

[5] = test system: prickly sida (Sida spinosa L.); assay: Test Example 1: foliar treatment, growth inhibition rate, prickly sida; assay type: in vivo; conditions: 31 g/ha active ingredient, visually observed 17th to 23rd day after application
Outline: as §2

[6] = test system: velvetleaf (Abutilon theophrasti MEDIC.); assay: Test Example 1: foliar treatment, growth inhibition rate, velvetleaf; assay type: in vivo; conditions: 31 g/ha active ingredient, visually observed 17th to 23rd day after application
Outline: as §1

rice (Oryza sativa L.) = assay: Test Example 1: foliar treatment, growth inhibition rate, rice; assay type: in vivo; conditions: 31 g/ha active ingredient, visually observed 17th to 23rd day after application
Outline: as §2

wheat (Triticum spp.) = assay: Test Example 1: foliar treatment, growth inhibition rate, wheat; assay type: in vivo; conditions: 31 g/ha active ingredient, visually observed 17th to 23rd day after application
Outline: as §2

corn (Zea mays L.) = assay: Test Example 1: foliar treatment, growth inhibition rate, corn; assay type: in vivo; conditions: 31 g/ha active ingredient, visually observed 17th to 23rd day after application
Outline: as §2

[7] = test system: soybean (Glycine max Merr.); assay: Test Example 1: foliar treatment, growth inhibition rate, soybean; assay type: in vivo; conditions: 31 g/ha active ingredient, visually observed 17th to 23rd day after application
Outline: as §2

barnyardgrass = assay: Test Example 2: soil application on the day after sowing, growth inhibition rate, barnyardgrass; assay type: in vivo, Echinochloa crus-galli L.; conditions: 250 g/ha active ingredient, observed on 19th to 24th day
Outline: (§3)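 Pre-emergence soil treatment: one day post-sowing in upland soil, compound formulations at set active-ingredient rates were applied in 500 L/ha water. Visual rating of growth inhibition (0% untreated-equivalent to 100% complete kill) followed on days 19–24 after application.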

crabgrass = assay: Test Example 2: soil application on the day after sowing, growth inhibition rate, crabgrass; assay type: in vivo, Digitaria sanguinalis L.; conditions: 250 g/ha active ingredient, observed on 19th to 24th day
Outline: as §3

greenfoxtail = assay: Test Example 2: soil application on the day after sowing, growth inhibition rate, greenfoxtail; assay type: in vivo, Setaria viridis L.; conditions: 250 g/ha active ingredient, observed on 19th to 24th day
Outline: as §3

redroot pigweed = assay: Test Example 2: soil application on the day after sowing, growth inhibition rate, redroot pigweed; assay type: in vivo, Amaranthus retroflexus L.; conditions: 250 g/ha active ingredient, observed on 19th to 24th day
Outline: as §3

prickly sida = assay: Test Example 2: soil application on the day after sowing, growth inhibition rate, prickly sida; assay type: in vivo, Sida spinosa L.; conditions: 250 g/ha active ingredient, observed on 19th to 24th day
Outline: as §3

velvetleaf = assay: Test Example 2: soil application on the day after sowing, growth inhibition rate, velvetleaf; assay type: in vivo, Abutilon theophrasti MEDIC.; conditions: 250 g/ha active ingredient, observed on 19th to 24th day
Outline: as §3

rice = assay: Test Example 2: soil application on the day after sowing, growth inhibition rate, rice; assay type: in vivo, Oryza sativa L.; conditions: 250 g/ha active ingredient, observed on 19th to 24th day
Outline: as §3

wheat = assay: Test Example 2: soil application on the day after sowing, growth inhibition rate, wheat; assay type: in vivo, Triticum spp.; conditions: 250 g/ha active ingredient, observed on 19th to 24th day
Outline: as §3

corn = assay: Test Example 2: soil application on the day after sowing, growth inhibition rate, corn; assay type: in vivo, Zea mays L.; conditions: 250 g/ha active ingredient, observed on 19th to 24th day
Outline: as §3

soybean = assay: Test Example 2: soil application on the day after sowing, growth inhibition rate, soybean; assay type: in vivo, Glycine max Merr.; conditions: 250 g/ha active ingredient, observed on 19th to 24th day
Outline: as §3

Structure (SMILES) | Growth inhibition rate (%) Barnyardgrass [1] [%] | Growth inhibition rate (%) Crabgrass [2] [%] | Growth inhibition rate (%) Greenfoxtail [3] [%] | Growth inhibition rate (%) redroot pigweed [4] [%] | Growth inhibition rate (%) Prickly sida [5] [%] | Growth inhibition rate (%) Velvetleaf [6] [%] | Growth inhibition rate (%) Rice (rice (Oryza sativa L.)) [%] | Growth inhibition rate (%) Wheat (wheat (Triticum spp.)) [%] | Growth inhibition rate (%) Corn (corn (Zea mays L.)) [%] | Growth inhibition rate (%) Soybean [7] [%] | Growth inhibition rate (%) Barnyardgrass (barnyardgrass) [%] | Growth inhibition rate (%) Crabgrass (crabgrass) [%] | Growth inhibition rate (%) Greenfoxtail (greenfoxtail) [%] | Growth inhibition rate (%) redroot pigweed (redroot pigweed) [%] | Growth inhibition rate (%) Prickly sida (prickly sida) [%] | Growth inhibition rate (%) Velvetleaf (velvetleaf) [%] | Growth inhibition rate (%) Rice (rice) [%] | Growth inhibition rate (%) Wheat (wheat) [%] | Growth inhibition rate (%) Corn (corn) [%] | Growth inhibition rate (%) Soybean (soybean) [%]
C#CCOc1c(S(C)(=O)=O)ccc(C(=O)c2cnn(C)c2OC(=O)SCC)c1C [compound 222] | 90 | 70 | 80 | 100 | 30 | 60 | 70 | 0 | 0 | 100 | 95 | 100 | 80 | 100 | 50 | 80 | 90 | 0 | 0 | 0
CCOC(=O)c1c(S(C)(=O)=O)ccc(C(=O)c2cnn(CC)c2OC(=O)SCC)c1C [compound 61] | 98 | 98 | 100 | 100 | 95 | 95 | 90 | 60 | 50 | 80 | 100 | 100 | 100 | 100 | 80 | 90 | 85 | 30 | 0 | 20
CCSC(=O)Oc1c(C(=O)c2ccc(S(C)(=O)=O)c(OCCOC)c2Cl)cnn1C [compound 216] | 100 | 100 | 98 | 100 | 50 | 98 | 70 | 0 | 10 | 95 | 95 | 100 | 100 | 100 | 80 | 90 | 80 | 0 | 0 | 0
CCSC(=O)Oc1c(C(=O)c2ccc(S(C)(=O)=O)c(OCCCOC)c2C)cnn1C [compound 218] | 100 | 100 | 95 | 100 | 70 | 90 | 98 | 10 | 0 | 95 | 90 | 80 | 90 | 100 | 50 | 30 | 80 | 0 | 0 | 0
